# Results reported in patent US20260242390A1, “TOTAL SYNTHESES OF PORTIMINE A AND ANALOGUES THEREOF AS SMALL MOLECULE MODULATORS OF NMD3” (priority 2023, published 2026).
# Where two headings read alike, the source gives them in different places.
# Experiments:
# MC38 = test: Broad cell line profiling, MC38; format: cell-based; details: MC-38; MC38, Mouse Colon Carcinoma; read-out: PA IC50
# Text: (§1) • A panel of human and mouse cancer cell types used to assess the breadth of PA activity, including multiple therapy resistant metastatic mesenchymal tumor cell lines and primary glioblastoma patient-derived metastatic stem/tumor initiating cell populations.
# [1] = system: shNMD3 Jurkat and HeLa cells; test: Toxicity in NMD3 knock-down (shNMD3) cells; format: cell-based, human; details: Jurkat 12.5 nM 12 or 24 hours; Jurkat and HeLa 5 nM or 150 nM 24 hours
# Method: FIG. 7. Portimine A targets NMD3 and prevents polysome formation. […] (A) Immunoblot showing reduced NMD3 levels in shNMD3 Jurkat and HeLa cells. […] Jurkat cells were treated with 12.5 nM of PA for 12 or 24 hours. Jurkat and HeLa cells were treated with 5 nM or 150 nM of PA for 24 hours. Data represents mean±SD of biologically replicated experiments (n=3). […] Cell lysates were fractionated by sucrose gradient (5-50%) and each fraction were analyzed by western blot. eIF6 levels increase in 60S subunit fraction and decrease in ribosome-free fractions after PA treatment. RPS6, a 40S and polysome subunits marker, is decreased in polysome fractions after PA treatment. Results are representative of three independent experiments. […] Relative protein levels in each fraction were normalized to the peak fraction of the indicated protein from the DMSO cells and plotted. Data represents mean±SD of biologically replicated experiments (n=3). Statistical analysis was performed using multiple unpaired Student t-test. * p≤0.05; ** p≤0.01; *** p≤0.005; **** p≤0.0001. Treatment condition: Jurkat (5 M per condition); Incubate cells (1 M/mL) with inhibitors for 6 hr, 12 hr and 24 hr, respectively.
# • 1) Portimine A and its functional analogs show stereo-selective acute toxicity in cancer cells (FIG. 1). […] (B) Structure of portimine related analogs: phenyl-portimine A (Ph-PA, 36) and epi-portimine A (ePA, 38). […]
# U118 = test: Broad cell line profiling, U118; format: cell-based; details: Homo sapiens; U118, Glioblastoma; read-out: PA IC50
# Text: as §1
# HT-1080 = test: Broad cell line profiling, HT-1080; format: cell-based; details: HT-1080, Human Fibrosarcoma; read-out: PA IC50
# Text: as §1
# [2] = in vivo; cited from earlier work
# Jurkat = test: Washout experiment, Cell Titerglo cell viability; format: cell-based, human; details: for IC50: Homo sapiens, Jurkat 50 k per well
smiles,measurement,setting,value
"C=CC1=C[C@@H]2[C@@H]3O[C@]4(CC[C@H](O4)C(C)C[C@@H](O)C3=O)CC(O)C3=NCC[C@@]32CC1 (stereo partly drawn) [PA, portimine A]",IC50,MC38,0.55 nM
same,toxic effects in shNMD3 compared to shCtrl cells,[1],less toxic effects
same,IC50,U118,5.6 nM
same,IC50,HT-1080,0.83 nM
same,LD50,[2],1.57 mg/kg
same,IC50,"Jurkat; read-out: IC50 after 30 min exposure, washout at 30 min, total 36 hours",~5 nM
same,IC50,"Jurkat; washout at 4 hr, total 36 hours, read-out: IC50 after 4 hr exposure",~2 nM
same,exposure resulting in minimal loss of potency,"Jurkat; compound washout, cell-based target engagement",< 1 h
same,decrease in IC50 on removing compound after 30 min,"Jurkat; washout after 30 min, total 36 hours",~ 5 fold
